Measured values published in patent US20240043797A1, “METHOD FOR MASS PRODUCTION OF HIGHLY PURE, STEM CELL-DERIVED EXTRACELLULAR VESICLE BY USING PEPTIDE” (INDUSTRY-ACADEMIC COOPERATION FOUNDATION, CHOSUN UNIVERSITY, priority 2020, published 2024).
Ends that are not written are not given here. Peptide text beside a SMILES is read from it.

Legend:
Type in all cases: cell-based
[1] = test system: mesenchymal stem cells; test: Inhibitor assay: EV production after pretreatment with BAPTA-AM or ALLM; conditions: TS-eEV production; cells pretreated with 50 μM BAPTA-AM 1 hour or 10 μM ALLM 18 hours
Description: The cells were pretreated with 50 μM BAPTA-AM (calcium-selective chelator) for 1 hour and with 10 μM ALLM (calpain inhibitor) for 18 hours. Comparison was made of EV production outputs among the method used, and the results are shown in FIGS. 14a and 14b and Table 15.

[2] = Viability of umbilical cord MSCs against eMTD peptide, absorbance analysis (ez-cytox, 450 nm; 'MTT assay')
Description: Mesenchymal stem cells derived from the umbilical cord (Wharton's jelly-derived MSCs, WJ-MSCs) were assayed for viability by treatment with the eMTD peptide at predetermined concentrations for predetermined periods of time. Tests were conducted with predetermined concentrations of the eMTD peptide. In this regard, umbilical cord-derived mesenchymal stem cells were seeded at a density of 2×10^4 cells/well into 24-well plates (30024, SPL). After 24 hours of incubation, the eMTD peptide in a sucrose buffer was applied at a final concentration of 0, 0.5, 1, 3, 5, 10, or 20 μM to the cells. The sucrose buffer contained glucose, sucrose, and 3-(N-morpholino)propanesulfonic acid [MOPS] at the respective concentrations shown in Table 2. After 15 minutes, the cells were incubated with ez-cytox (EZ-3000, DOGEN) for 30 to 60 minutes. Then, absorbance was read at 450 nm using a Bio-RAD x-Mark™ spectrophotometer (Bio-Rad Laboratories, USA). In addition, treatment with the eMTD peptide was conducted over various times. In this regard, umbilical cord-derived mesenchymal stem cells were seeded at a density of 2×10^4 cells/well into 24-well plates and incubated for 24 hours. Thereafter, the cells were treated with 1 μM of the eMTD peptide in the sucrose buffer for various periods of time (0, 5, 10, 15, 20, 25, or 30 minutes). After 15 minutes of treatment, the cells were incubated for 30 to 60 minutes with ez-cytox (EZ-3000, DOGEN). Absorbance was read at 450 nm using the Bio-RAD x-Mark™ spectrophotometer (Bio-Rad Laboratories, USA).

[3] = Viability of umbilical cord MSCs against eMTD peptide, cell counting with trypan blue (TB assay)
Description: To measure the number of cells, umbilical cord-derived mesenchymal stem cells were seeded at a density of 2.5×10^4 cells/well into 12-well plates (30012, SPL) and incubated for 24 hours. The eMTD peptide in the sucrose buffer of Table 2 was applied at a final concentration of 0, 0.5, 1.0, 3.0, 5.0, 10.0, or 20.0 μM to the cells. After 15 minutes, the cells were counted using a trypan blue solution. Separately, umbilical cord-derived mesenchymal stem cells were seeded at a density of 2.5×10^4 cells/well into 12-well plates (30012, SPL) and incubated for 24 hours. The cells were treated with the eMTD peptide in the sucrose buffer of Table 2 for various periods of time (0, 5, 10, 15, 20, 25, and 30 minutes). After each period, the cells were counted using a trypan blue solution, and the results are depicted in FIG. 2 and summarized in Tables 5 and 6.

CSCC[C@@H](C=O)NC(=O)[C@H](CC(C)C)NC(=O)[C@H](CC(C)C)NC(C)=O [ALLM] (Ac-Leu-Leu-Met-aldehyde)
EV production (particle number/cell) [1]: 8.25 × 10^3 ± 9.96 × 10^2 particle number/cell

CC(=O)OCOC(=O)CN(CC(=O)OCOC(C)=O)c1ccccc1OCCOc1ccccc1N(CC(=O)OCOC(C)=O)CC(=O)OCOC(C)=O [BAPTA-AM]
EV production (particle number/cell) [1]: 7.34 × 10^3 ± 9.08 × 10^2 particle number/cell

KLNFRQKLLNLISKLFCSGT [eMTD]
viability at 5 min, 1 μM ([2]; MTT assay, 1 μM eMTD, time 5 min, read-out: Cell viability (%)): 52.7% | viability at 10 min, 1 μM ([2]; MTT assay, 1 μM eMTD, time 10 min, read-out: Cell viability (%)): 41.8% | viability at 15 min, 1 μM ([2]; MTT assay, 1 μM eMTD, time 15 min, read-out: Cell viability (%)): 37% | viability at 20 min, 1 μM ([2]; MTT assay, 1 μM eMTD, time 20 min, read-out: Cell viability (%)): 29.4% | viability at 25 min, 1 μM ([2]; MTT assay, 1 μM eMTD, time 25 min, read-out: Cell viability (%)): 18.5% | viability at 30 min, 1 μM ([2]; MTT assay, 1 μM eMTD, time 30 min, read-out: Cell viability (%)): 17.8% | viability at 15 minutes, 0.5 μM ([2]; MTT assay, eMTD 0.5 μM, 15 minutes, read-out: Cell viability (%)): 53.9% | viability at 15 minutes, 1 μM ([2]; MTT assay, eMTD 1.0 μM, 15 minutes, read-out: Cell viability (%)): 57.4% | viability at 15 minutes, 3 μM ([2]; MTT assay, eMTD 3.0 μM, 15 minutes, read-out: Cell viability (%)): 13.6% | viability at 15 minutes, 5 μM ([2]; MTT assay, eMTD 5.0 μM, 15 minutes, read-out: Cell viability (%)): 5.8% | viability at 15 minutes, 10 μM ([2]; MTT assay, eMTD 10.0 μM, 15 minutes, read-out: Cell viability (%)): 2.9% | viability at 15 minutes, 20 μM ([2]; MTT assay, eMTD 20.0 μM, 15 minutes, read-out: Cell viability (%)): 4.1% | viability at 15 minutes, 1 μM ([2]; cell viability): ~50% | viability at 15 minutes, 10 μM [3]: 0% | viability at 15 minutes, 0.5 μM ([3]; umbilical cord-derived mesenchymal stem cells, TB assay, eMTD 0.5 μM, 15 minutes): 66.7% | viability at 15 minutes, 1 μM ([3]; umbilical cord-derived mesenchymal stem cells, TB assay, eMTD 1.0 μM, 15 minutes): 66.3% | viability at 15 minutes, 3 μM ([3]; umbilical cord-derived mesenchymal stem cells, TB assay, eMTD 3.0 μM, 15 minutes): 21.9% | viability at 15 minutes, 5 μM ([3]; umbilical cord-derived mesenchymal stem cells, TB assay, eMTD 5.0 μM, 15 minutes): 11.2% | viability at 15 minutes, 20 μM ([3]; umbilical cord-derived mesenchymal stem cells, TB assay, eMTD 20.0 μM, 15 minutes): 2.1% | viability at 5 min ([3]; umbilical cord-derived mesenchymal stem cells, TB assay, time 5 min): 40% | viability at 10 min ([3]; umbilical cord-derived mesenchymal stem cells, TB assay, time 10 min): 29.7% | viability at 15 min ([3]; umbilical cord-derived mesenchymal stem cells, TB assay, time 15 min): 38.5% | viability at 20 min ([3]; umbilical cord-derived mesenchymal stem cells, TB assay, time 20 min): 35.9% | viability at 25 min ([3]; umbilical cord-derived mesenchymal stem cells, TB assay, time 25 min): 14.6% | viability at 30 min ([3]; umbilical cord-derived mesenchymal stem cells, TB assay, time 30 min): 15.6%
